Data: patent publication US7785639B2, “Composition for treating cancer cells and preparation method for the same” (Kaohsiung Medical University, priority 2005, dated 2010)
≈ marks a conversion by molar mass, not a printed value.

Tests used:
MCF-7 = assay: MTT cytotoxic testing, MCF-7; format: cell-based; conditions: average ± standard deviation (n = 2); for IC50 MCF-7: human breast cancer cell line; for IC50: MCF7, human breast cancer cell line
Hep 3B = assay: MTT cytotoxic testing, Hep 3B; format: cell-based; conditions: human liver cancer cell line, average ± standard deviation (n = 2); for IC50: Hep3B
MDA-MB-231 = assay: MTT cytotoxic testing, MDA-MB-231; format: cell-based; conditions: average ± standard deviation (n = 2); for IC50 MDA-MB-231: human breast cancer cell line; for IC50: MDA-MB-231, human breast cancer cell line
A549 = assay: MTT cytotoxic testing, A549; format: cell-based; conditions: average ± standard deviation (n = 2); for IC50 A549: human lung cancer cell line; for IC50: A549, human lung cancer cell line
[1] = system: five human cancer cell lines
Hep G2 = assay: MTT cytotoxic testing, Hep G2; format: cell-based; conditions: average ± standard deviation (n = 2); for IC50 Hep G2: human liver cancer cell line; for IC50: HepG2, human liver cancer cell line
MCF-10A [2] = system: MCF-10A
MCF-10A [3] = assay: cells; conditions: Homo sapiens, read-out: IC50 MCF-10A

| Compound | IC50 MCF-7 (MCF-7) | IC50 Hep 3B (Hep 3B) [µg/mL] | IC50 MDA-MB-231 (MDA-MB-231) | IC50 A549 (A549) [µg/mL] | cytotoxic activities on cancer cells [1] | IC50 Hep G2 (Hep G2) [µg/mL] | IC50 (MCF-7) [µg/mL] | cytotoxicity to normal human breast epidermal cells (MCF-10A [2]) | IC50 (Hep 3B) [µg/mL] | IC50 (MDA-MB-231) [µg/mL] | IC50 (MCF-10A [3]) [µg/mL] | IC50 (A549) [µg/mL] | IC50 (Hep G2) [µg/mL] |
| --- | --- | --- | --- | --- | --- | --- | --- | --- | --- | --- | --- | --- | --- |
| COC1CC(=O)C=CC1(O)c1cc(=O)c2c(O)cc(O)cc2o1 (stereo not drawn) [Compound B, 5′,6′-Dihydro-6′-methoxy-protoapigenone] | 5.92 ± 0.29 µg/mL (≈ 18.6 µM) | 1.74 ± 0.08 (≈ 5.47 µM) | 1.30 ± 0.10 µg/mL (≈ 4.08 µM) | 13.30 ± 0.23 (≈ 41.8 µM) | good cytotoxic activities | 5.88 ± 0.47 (≈ 18.5 µM) |  |  |  |  |  |  |  |
| O=C1C=CC(O)(c2cc(=O)c3c(O)cc(O)cc3o2)C=C1 [Compound A, Protoapigenone] |  |  |  |  | good cytotoxic activities |  | 0.78 ± 0.02 (≈ 2.72 µM) | weak cytotoxicity | 0.23 ± 0.01 (≈ 0.804 µM) | 0.27 ± 0.02 (≈ 0.943 µM) | 7.9 ± 1.3 (≈ 27.6 µM) | 3.88 ± 0.02 (≈ 13.6 µM) | 1.6 ± 0.33 (≈ 5.59 µM) |
| COc1cccc2c1C(=O)c1c(O)c3c(c(O)c1C2=O)C[C@@](O)(C(=O)CO)C[C@@H]3O[C@H]1C[C@H](N)[C@H](O)[C@H](C)O1 [Compound E, Doxorubicin, reference compound] |  |  |  |  |  |  | 0.32 ± 0.08 (≈ 0.589 µM) |  | 0.26 ± 0.06 (≈ 0.478 µM) | 0.31 ± 0.02 (≈ 0.57 µM) |  | 0.36 ± 0.04 (≈ 0.662 µM) | 0.15 (≈ 0.276 µM) |
| O=c1cc(C2(O)C=CC(O)C=C2)oc2cc(O)cc(O)c12 (stereo not drawn) [Compound C, Protoapigenin] | — (Without the cytotoxical activity in the concentration of 20 μg/ml) | 20.00 ± 0.58 (≈ 69.4 µM) | — (Without the cytotoxical activity in the concentration of 20 μg/ml) | 18.84 ± 0.60 (≈ 65.4 µM) | good cytotoxic activities | 1.60 ± 0.33 (≈ 5.55 µM) |  |  |  |  |  |  |  |
| COC1(OC)CCC(O)(c2cc(=O)c3c(O)cc(O)cc3o2)CC1 [Compound D, 5,7-dihydroxy-2-(1-hydroxy-4,4-dimethoxy-cyclohexyl)-chromen-4-one] |  |  |  |  |  |  | > 20 |  | > 20 | > 20 |  | > 20 | > 20 |
